Experimental data as given in publication PMC10096398, “Discovery of Novel EGFR Inhibitor Targeting Wild-Type and Mutant Forms of EGFR: In Silico and In Vitro Study” (Molecules, 2023).
Counter-ions that a name gives are not always drawn. Like-named read-outs stand apart in the source and are kept apart here.

How the values were obtained:
L858R/T790M EGFR = L858R/T790M EGFR (Homo sapiens, UniProt P00533, L858R/T790M); assay: EGFR inhibitory activity, ADP-Glo kinase assay; type: biochemical; settings: for IC50: ADP-Glo
Procedure: (§2) Firstly, 8 µL of buffer (40 mM Tris-HCl pH 7.5, 20 mM MgCl2, and 0.1 mg/mL bovine serum albumin) were added to a 384-well plate (Promega, solid white). […] Thirdly, 5 µL of the ADP-Glo reagent was added and incubated for 40 min. Finally, 10 µL of kinase detection reagent was added and incubated at room temperature for 30 min and was detected by measuring the luminescence using a microplate reader (Infinite M200 microplate reader, Tecan, Männedorf, Switzerland).

wild-type EGFR = wild-type EGFR (Homo sapiens, UniProt P00533); assay: EGFR inhibitory activity, ADP-Glo kinase assay; type: biochemical; settings: for IC50: ADP-Glo; for EGFR inhibitory screening: single 1 µM concentration
Procedure: as §2

A549 = assay: MTT cell viability assay; type: cell-based; settings: Homo sapiens, read-out: IC50 (μM) A549
Procedure: (§1) The cytotoxicity activities of potent PD derivatives obtained from the SIE method against A549 and H1975, as well as Vero (which are adherent cells), were assessed using MTT (3-(4,5-dimethyl-2-thiazolyl)-2,5-diphenyl-2H-tetrazolium bromide) assays. The A549 and Vero cells were grown in complete DMEM medium whereas H1975 cells were grown in complete RPMI medium supplemented with 10% (v/v) FBS, 100 U/mL penicillin and 100 µg/mL streptomycin. All cells were routinely cultured at 37 °C in a 5% (v/v) CO2, 95% (v/v) air humidified incubator. A549 (5 × 10^3 cells per well), H1975 (5 × 10^3 cells per well), and Vero (2 × 10^3 cells per well) cells were seeded into 96-well plates and incubated overnight. After cell attachment, cells were replenished using fresh medium with 0.1% FBS containing various concentrations of potent PD derivatives and known drugs and then incubated at 37 °C for 72 h. After that, fresh medium containing MTT solution (5 mg/mL) was added and incubated at 37 °C. After 3 h, the formed formazan crystal was dissolved with 100 μL of dimethyl sulfoxide (DMSO). Finally, the absorbance of formazan solution was measured at a wavelength 570 nm using a microplate reader (Infinite M200 microplate reader, Tecan, Männedorf, Switzerland). The independent treatments were repeated in triplicate. The IC50 determination of compounds was achieved using GraphPad Prism version 9.0.

H1975 = assay: MTT cell viability assay; type: cell-based; settings: Homo sapiens, read-out: IC50 (μM) H1975
Procedure: as §1

L858R/T790M/C797S EGFR = L858R/T790M/C797S EGFR (Homo sapiens, UniProt P00533, C797S/L858R/T790M); assay: EGFR inhibitory activity, ADP-Glo kinase assay; type: biochemical
Procedure: as §2

Vero = assay: MTT cell viability assay, normal cell line; type: cell-based, monkey; settings: 72 h, read-out: IC50 (μM) Vero
Procedure: as §1

[1] = Primates, Vero, Vero normal cells, MTT

Cc1ncc(CN2CCN(Cc3cccnc3)CC2)c2cc(C(=O)c3ccc4c(c3)OCCO4)oc12 (as salt: hydrochloride) [PD13, (2,3-Dihydrobenzo[d][1,4]dioxin-6-yl){7-methyl-4-[(4-(pyridin-3-ylmethyl)piperazin-1-yl)methyl]furo[2,3-c]pyridin-2-yl}methanone dihydrochloride]
melting point: 224 to 227 °C

COc1ccc(C(=O)c2cc3c(CO)cnc(C)c3o2)cc1 [PD1, [4-Hydroxymethyl-7-methylfuro[2,3-c]pyridin-2-yl](4-methoxyphenyl)methanone]
melting point: 147 to 148 °C

Cc1ncc(CN2CCN(C=O)CC2)c2cc(C(=O)c3ccc(Br)cc3)oc12.Cl
melting point: 233 to 239 °C

Cc1ncc(CN2CCN(Cc3cccnc3)CC2)c2cc(C(=O)c3ccc(Br)cc3)oc12.Cl.Cl [PD4, (4-Bromophenyl){7-methyl-4-[(4-(pyridin-3-ylmethyl)piperazin-1-yl]methyl}furo[2,3-c]pyridin-2-yl)methanone dihydrochloride]
IC50 (L858R/T790M EGFR): 91 ± 2.01 nM
melting point: 243 to 247 °C
IC50 (wild-type EGFR): 4.78 ± 0.73 nM
EGFR inhibitory activity compared to erlotinib (wild-type EGFR; ratio of IC50 values): > 2 fold
EGFR inhibitory screening (wild-type EGFR): only against wild-type EGFR
IC50 (A549; A549, MTT, 72 h): 19.7 ± 0.59 µM
IC50 (H1975; NCI-H1975, H1975, MTT, 72 h): 27.3 ± 1.02 µM
IC50 (L858R/T790M/C797S EGFR): 104 ± 3.62 nM
IC50 (Vero; [1]): < 100 µM
IC50 (Vero; Vero normal cells, MTT): > 50 µM

C=CC(=O)Nc1cc(Nc2nccc(-c3cn(C)c4ccccc34)n2)c(OC)cc1N(C)CCN(C)C [Osimertinib]
IC50 (A549; A549, 72 h): 25.3 ± 1.21 µM
IC50 (H1975; NCI-H1975, 72 h): 18.3 ± 2 µM
IC50 (Vero; Primates, Vero): > 50 µM

C#Cc1cccc(Nc2ncnc3cc(OCCOC)c(OCCOC)cc23)c1 [Erlotinib]
IC50 (A549; A549, 72 h): 19.4 ± 0.79 µM
IC50 (H1975; NCI-H1975, 72 h): 41.8 ± 2.19 µM
IC50 (Vero; Primates, Vero): > 30 µM

Cc1ncc(CN2CCN(Cc3cccnc3)CC2)c2cc(C(=O)c3ccc4c(c3)OCCO4)oc12 [PD13, (2,3-Dihydrobenzo[d][1,4]dioxin-6-yl){7-methyl-4-[(4-(pyridin-3-ylmethyl)piperazin-1-yl)methyl]furo[2,3-c]pyridin-2-yl}methanone dihydrochloride]
IC50 (L858R/T790M EGFR): 10.5 ± 0.71 nM
EGFR inhibitory screening (L858R/T790M EGFR; single 1 µM concentration): active
IC50 (wild-type EGFR): 11.6 ± 1.3 nM
EGFR inhibitory screening (wild-type EGFR): active
IC50 (A549; A549, MTT, 72 h): 18.1 ± 1.57 µM
IC50 (H1975; NCI-H1975, H1975, MTT, 72 h): 33.9 ± 0.86 µM
IC50 (L858R/T790M/C797S EGFR): 21.9 ± 1.79 nM
IC50 (nM) L858R/T790M/C797S (L858R/T790M/C797S EGFR): double-digit nanomolar range
IC50 (Vero; [1]): > 100 µM

Cc1ncc(CN2CCN(CCC#N)CC2)c2cc(C(=O)c3ccc(Br)cc3)oc12 [PD10, 3-{4-[(2-(4-bromobenzoyl)-7-methylfuro[2,3-c]pyridin-4-yl)methyl]piperazin-1-yl}propanenitrile]
melting point: 129 to 132 °C

Cc1ncc(CN2CCN(Cc3ccccn3)CC2)c2cc(C(=O)c3ccc(Br)cc3)oc12.Cl.Cl [PD3, (4-Bromophenyl){7-methyl-4-[(4-(pyridin-2-ylmethyl)piperazin-1-yl]methyl}furo[2,3-c]pyridin-2-yl)methanone dihydrochloride]
melting point: 224 to 225 °C

CN(C)C/C=C/C(=O)Nc1cc2c(Nc3ccc(F)c(Cl)c3)ncnc2cc1O[C@H]1CCOC1 [Afatinib]
IC50 (A549; A549, 72 h): 34.7 ± 0.67 µM
IC50 (H1975; NCI-H1975, 72 h): 27.3 ± 1.87 µM
IC50 (Vero; Primates, Vero): > 50 µM

Cc1ncc(Cn2ccnc2)c2cc(C(=O)c3ccc(Br)cc3)oc12.Cl
melting point: 278 to 280 °C

Cc1ncc(Cn2cnc(Cl)c2Cl)c2cc(C(=O)c3ccc(Br)cc3)oc12
melting point: 183 to 185 °C
